Broadly, the inhibition is the drop in the measured response relative to a control, in per cent.

Structures are written as SMILES. Calls of active or inactive are those of the source. No cut-off for these calls is given here.

The nature of assay [1]: Induction of apoptosis in human CRT-MG cells assessed as cell death at 10 uM after 24 hrs by LDH release assay. In kind it is functional. In general terms: LDH leaks from cells whose membrane has failed.
Assay [2] in a line: (§1) Induction of TRAIL-mediated human CRT-MG cell death at 10 uM after 24 hrs by LDH release assay relative to control. In kind it is functional.
Assay [3] is described as follows: Induction of apoptosis in human CRT-MG cells assessed as inhibition of cell proliferation at 10 uM after 24 hrs. In kind it is functional.
Assay [4] in a line: (§2) Cytotoxicity against TRAIL-induced human CRT-MG cells at 50 uM after 24 hrs. In kind it is functional.
For assay [5], the system named is CRT-MG. The description is as §1. In kind it is functional.
Assay [6] can be described thus: Cytotoxicity against TRAIL-induced human U251MG cells assessed as cleavage of procaspase 3/8 at 10 uM after 48 hrs by MTS colorimetric assay. In kind it is functional, U-251.
The next assay concerns LNCaP. The assay can be described thus: Cytotoxicity against TRAIL-induced human LNCAP cells assessed as caspase 3 activity at 10 uM after 48 hrs by MTS colorimetric assay relative to control. In kind it is functional. A general note: Tetrazolium dyes change colour on reduction, which living cells bring about.
Assay [7] in a line: Cytotoxicity against TRAIL-induced human U87MG cells assessed as cleavage of procaspase 3/8 at 10 uM after 48 hrs by MTS colorimetric assay. In kind it is functional, U-87MG ATCC.
Assay [8] concerns CRT-MG. Described as §2. In kind it is functional.

For the compound `CCN(CC)c1ccc(/C=C/C(=O)c2cccc(-n3cc(-c4cc(F)cc(F)c4)nn3)c2)cc1`, the Activity in [1] is recorded as under 20%.
Regarding `CCN(CC)c1ccc(/C=C/C(=O)c2cccc(N=[N+]=[N-])c2)cc1`, the results for the Activity in assay [2] and in assay [1] were 78.3% and 27.8%, respectively. In [3], the inhibition at 10 µM was found to be 55.6%.
As to `CCN(CC)c1ccc(/C=C/C(=O)c2cccc(-n3cc(-c4ccc(Br)cc4)nn3)c2)cc1`, the Activity in assay [4] was under 20%. Moreover, the outcome in the assay with CRT-MG [5] was Active.
For the compound `CCN(CC)c1ccc(/C=C/C(=O)c2cccc(-n3cc(-c4ccc(C)cc4)nn3)c2)cc1`, the result with CRT-MG [5] was Active. Moreover, the Activity in assay [1] was under 20%.
As to `CCN(CC)c1ccc(/C=C/C(=O)c2cccc(-n3cc(-c4ccc(F)cc4)nn3)c2)cc1`, the result with CRT-MG [5] was Active. The Activity in [1] is under 20%.
For the compound `CCN(CC)c1ccc(/C=C/C(=O)c2cccc(-n3cc(C(C)(C)O)nn3)c2)cc1`, the Activity in assay [4] is listed as under 20%; in assay [1], 13.3%. In assay [2], the “fold change (FC)” value turned out to be 2.5.
With `CCCCCc1ccc(-c2cn(-c3cccc(C(=O)/C=C/c4ccc(N(CC)CC)cc4)c3)nn2)cc1`, the outcome in the assay on CRT-MG [5] was Active. The Activity in [1] is reported as under 20%.
In the same order, the values of `CCN(CC)c1ccc(/C=C/C(=O)c2cccc(-n3cc(-c4ccc(OC)cc4)nn3)c2)cc1` are “Active” and under 20%.
In the same order, the values of `C=C(C)c1cn(-c2cccc(C(=O)/C=C/c3ccc(N(CC)CC)cc3)c2)nn1` are “Active” and under 20%.
As to `COc1cc(/C=C/C(=O)CC(=O)/C=C/c2ccc(O)c(OC)c2)ccc1O` [CURCUMIN], the Activity came out at 60% in assay [6] and 45% in [7]. For the same compound, the Ratio in the assay on LNCaP came out at 2.
Take `CCN(CC)c1ccc(/C=C/C(=O)c2cccc(-n3cc(-c4cccc(Cl)c4)nn3)c2)cc1`: in the assay on CRT-MG [5], the outcome was Active. For the same compound, the Activity in [1] was under 20%.
Regarding `CCN(CC)c1ccc(/C=C/C(=O)c2cccc(-n3cc(-c4ccccc4C(F)(F)F)nn3)c2)cc1`, the outcome with CRT-MG [8] and in the assay with CRT-MG [5] was Active. For the same compound, in assay [1], the Activity is under 20%.
Take `CCN(CC)c1ccc(/C=C/C(=O)c2cccc(-n3cc(-c4ccccc4)nn3)c2)cc1`: in the assay on CRT-MG [8], the outcome was Active. Further, the “fold change (FC)” value in assay [2] came to 2.5. Moreover, the Activity in [1] came out at 14.3%.

Values taken from ChEMBL document CHEMBL3351440, “Synthesis of diethylamino-curcumin mimics with substituted triazolyl groups and their sensitization effect of TRAIL against brain cancer cells” (2014).
